Results taken from PubChem BioAssay AID1918942 (Molecular Pharmacology Branch, DTP, NCI, 2023).

Tested on: 743489-274-T-PDC complex spheroid viability
Test: Anticancer human tumor 743489-274-T-PDC patient-derived renal cell carcinoma cell line growth inhibition
Settings: for IC50: curve of first compound; for viability, T/C: stronger effect = lower value
Outline: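 Complex spheroids of tumor cells with HUVEC and human MSCs, exposed to iadademstat combined with other agents. Each agent tested in half-log steps from near clinical Cmax (else 10 microM top), DMSO ≤0.25%.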

[1] = second compound 0.1 µM, first compound 0.000316 µM
[2] = second compound 0.1 µM, first compound 0.001 µM
[3] = second compound 0.1 µM, first compound 0.00316 µM
[4] = second compound 0.1 µM, first compound 0.01 µM
[5] = second compound 0.1 µM, first compound 0.0316 µM
[6] = second compound 0.1 µM, first compound 0.1 µM
[7] = second compound 0.316 µM, first compound 0.000316 µM
[8] = second compound 0.316 µM, first compound 0.001 µM
[9] = second compound 0.316 µM, first compound 0.00316 µM
[10] = second compound 0.316 µM, first compound 0.01 µM
[11] = second compound 0.316 µM, first compound 0.0316 µM
[12] = second compound 0.316 µM, first compound 0.1 µM
[13] = second compound 1 µM, first compound 0.000316 µM
[14] = second compound 1 µM, first compound 0.001 µM
[15] = second compound 1 µM, first compound 0.00316 µM
[16] = second compound 1 µM, first compound 0.01 µM
[17] = second compound 1 µM, first compound 0.0316 µM
[18] = second compound 1 µM, first compound 0.1 µM
[19] = second compound 3.16 µM, first compound 0.000316 µM
[20] = second compound 3.16 µM, first compound 0.001 µM
[21] = second compound 3.16 µM, first compound 0.00316 µM
[22] = second compound 3.16 µM, first compound 0.01 µM
[23] = second compound 3.16 µM, first compound 0.0316 µM
[24] = second compound 3.16 µM, first compound 0.1 µM
[25] = second compound 10 µM, first compound 0.000316 µM
[26] = second compound 10 µM, first compound 0.001 µM
[27] = second compound 10 µM, first compound 0.00316 µM
[28] = second compound 10 µM, first compound 0.01 µM
[29] = second compound 10 µM, first compound 0.0316 µM
[30] = second compound 10 µM, first compound 0.1 µM
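Also: spheroids exposed to compounds for 7 days before readout.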
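For viability, T/C in this document: 100% = DMSO vehicle control wells.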

Structure (SMILES): CC(C)CC(NC(=O)C(Cc1ccccc1)NC(=O)c1cnccn1)B(O)O (stereo not given) + NC1CC1c1ccc(-c2cccc(O)c2)cc1
- IC50 (second compound 0.1 µM): 7.45 nM
- IC50 (second compound 0.316 µM): 7.39 nM
- IC50 (second compound 1 µM): 7.95 nM
- IC50 (second compound 3.16 µM): 7.95 nM
- IC50 (second compound 10 µM): 6.77 nM
- viability, T/C [1]: 122%
- viability, T/C [2]: 102%
- viability, T/C [3]: 93.9%
- viability, T/C [4]: 33.9%
- viability, T/C [5]: 32.3%
- viability, T/C [6]: 24.2%
- viability, T/C [7]: 119%
- viability, T/C [8]: 109%
- viability, T/C [9]: 111%
- viability, T/C [10]: 25.3%
- viability, T/C [11]: 30.7%
- viability, T/C [12]: 28.5%
- viability, T/C [13]: 113%
- viability, T/C [14]: 104%
- viability, T/C [15]: 102%
- viability, T/C [16]: 35.9%
- viability, T/C [17]: 36.8%
- viability, T/C [18]: 19.4%
- viability, T/C [19]: 123%
- viability, T/C [20]: 136%
- viability, T/C [21]: 105%
- viability, T/C [22]: 36.5%
- viability, T/C [23]: 28.5%
- viability, T/C [24]: 20.7%
- viability, T/C [25]: 110%
- viability, T/C [26]: 118%
- viability, T/C [27]: 98.7%
- viability, T/C [28]: 25%
- viability, T/C [29]: 25.5%
- viability, T/C [30]: 14.5%

Structure (SMILES): CC(C)CC(NC(=O)CNC(=O)c1cc(Cl)ccc1Cl)B1OC(=O)CC(CC(=O)O)(C(=O)O)O1 (stereo not given) + NC1CC1c1ccc(-c2cccc(O)c2)cc1
- IC50 (second compound 0.1 µM): 83.1 nM
- IC50 (second compound 0.316 µM): > 100 nM
- IC50 (second compound 1 µM): 84.5 nM
- IC50 (second compound 3.16 µM): > 100 nM
- IC50 (second compound 10 µM): 49.9 nM
- viability, T/C [1]: 105%
- viability, T/C [2]: 114%
- viability, T/C [3]: 97.8%
- viability, T/C [4]: 80.7%
- viability, T/C [5]: 74.3%
- viability, T/C [6]: 45%
- viability, T/C [7]: 102%
- viability, T/C [8]: 102%
- viability, T/C [9]: 94.5%
- viability, T/C [10]: 77.6%
- viability, T/C [11]: 76.5%
- viability, T/C [12]: 52.8%
- viability, T/C [13]: 103%
- viability, T/C [14]: 106%
- viability, T/C [15]: 104%
- viability, T/C [16]: 80%
- viability, T/C [17]: 66.1%
- viability, T/C [18]: 46.6%
- viability, T/C [19]: 90%
- viability, T/C [20]: 105%
- viability, T/C [21]: 102%
- viability, T/C [22]: 68.2%
- viability, T/C [23]: 60.8%
- viability, T/C [24]: 45.2%
- viability, T/C [25]: 95.8%
- viability, T/C [26]: 108%
- viability, T/C [27]: 101%
- viability, T/C [28]: 80.1%
- viability, T/C [29]: 59.7%
- viability, T/C [30]: 37.7%

Structure (SMILES): COc1cc(Nc2ncc3c(n2)-c2ccc(Cl)cc2C(c2c(F)cccc2OC)=NC3)ccc1C(=O)O + NC1CC1c1ccc(-c2cccc(O)c2)cc1
- IC50 (second compound 0.1 µM): > 1000 nM
- IC50 (second compound 0.316 µM): > 1000 nM
- IC50 (second compound 1 µM): > 1000 nM
- IC50 (second compound 3.16 µM): > 1000 nM
- IC50 (second compound 10 µM): > 1000 nM
- viability, T/C [3]: 103%
- viability, T/C [4]: 105%
- viability, T/C [5]: 82.8%
- viability, T/C [6]: 72.2%
- viability, T/C (second compound 0.1 µM, first compound 0.316 µM): 82.4%
- viability, T/C (second compound 0.1 µM, first compound 1 µM): 81.5%
- viability, T/C [9]: 97.7%
- viability, T/C [10]: 100%
- viability, T/C [11]: 85.4%
- viability, T/C [12]: 90%
- viability, T/C (second compound 0.316 µM, first compound 0.316 µM): 81.2%
- viability, T/C (second compound 0.316 µM, first compound 1 µM): 80.5%
- viability, T/C [15]: 111%
- viability, T/C [16]: 91.4%
- viability, T/C [17]: 84.3%
- viability, T/C [18]: 74.3%
- viability, T/C (second compound 1 µM, first compound 0.316 µM): 74%
- viability, T/C (second compound 1 µM, first compound 1 µM): 82.5%
- viability, T/C [21]: 92.9%
- viability, T/C [22]: 85.7%
- viability, T/C [23]: 89.5%
- viability, T/C [24]: 77.6%
- viability, T/C (second compound 3.16 µM, first compound 0.316 µM): 72.8%
- viability, T/C (second compound 3.16 µM, first compound 1 µM): 79%
- viability, T/C [27]: 100%
- viability, T/C [28]: 102%
- viability, T/C [29]: 85.3%
- viability, T/C [30]: 83.5%
- viability, T/C (second compound 10 µM, first compound 0.316 µM): 82.9%
- viability, T/C (second compound 10 µM, first compound 1 µM): 78.4%
